From PMC7413254 (Nature Communications, 2020)
Where two headings read alike, the source gives them in different places.

What was measured:
non-expressing oocytes [1] = assay: cells; format: cell-based, Xenopus laevis; conditions: Xenopus laevis, total [3H]CQ transport; for inhibition at 500 µM: [test solute] = 0.5 mM; for inhibition at 1000 µM: [test solute] = 1 mM; for inhibition at 2000 µM: [test solute] = 2 mM
How it was run: (§1)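 Using pH 5.5 ND96 at 27.5 °C, uptake is followed for 1.5 h, stopped with ice-cold buffer, and quantified as accumulated radioactivity per oocyte after SDS lysis.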

non-expressing oocytes [2] = format: cell-based, Xenopus laevis; conditions: total [3H]CQ transport; for Uptake of [3H]CQ (% non-expressing oocyte control), trans-stimulation: non-expressing oocytes, normalised to the oocyte type control; for Uptake of [3H]CQ (% PfCRTDd2 control), trans-stimulation, non-expressing oocytes: mean ± SEM, SEM
How it was run: (§2)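 Oocytes (ten per treatment, ≥4 independent frogs/days) were preloaded by injecting VF-6 in 25 nL ND96 at pH 5.0, 5.5, 6.0 or 7.0, or Na^+-free choline buffer, then uptake run 1.5 h, 27.5 °C, ND96 pH 5.5 by default. Internal concentrations assumed ~400 nL oocyte volume.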

PfCRT^3D7 [3] = target: T1, PfCRT^3D7 (Plasmodium falciparum, UniProt Q8IBZ9); assay: cell-based; format: cell-based
How it was run: as §2

PfCRT^Ecu1110 [4] = target: T2, PfCRT^Ecu1110 (Plasmodium falciparum, UniProt Q9N623, A220S/I356L/K76T/N326D); assay: cell-based; format: cell-based; conditions: […]
How it was run: as §2

PfNT1 = target: T3, PfNT1 (Plasmodium falciparum, UniProt Q8IDM6); assay: cell-based; format: cell-based; conditions: for activity at 5000 µM: total [3H]CQ transport
T3 construct: expressed in transfected cells; host or cells: Xenopus laevis oocytes (stage V-VI), cRNA-injected
How it was run: as §2

PfCRT^Dd2 [5] = target: T4, PfCRT^Dd2 (Plasmodium falciparum, UniProt Q9N623, A220S/I356T/K76T/M74I/N326S/N75E/Q271E/R371I); assay: cell-based; format: cell-based; conditions: […]; for activity at 45000 µM: [test solute]i = 45 mM (30 mM for some solutes due to solubility)
How it was run: as §2

PfCRT^Ecu1110 [6] = target: T2, PfCRT^Ecu1110; assay: [3H]CQ uptake into Xenopus oocytes, cis-inhibition by unlabelled solute; format: cell-based
How it was run: as §1

PfCRT^Dd2 [7] = target: T4, PfCRT^Dd2; assay: as above; format: cell-based
How it was run: as §1

PfCRT [8] = assay: Potential co-substrates tested for influx of VF-6 via PfCRT into the oocyte; format: cell-based, Plasmodium falciparum; parameters: key: X: Compounds that have been tested as potential co-substrates but are not required for influx of VF-6 via PfCRT into the oocyte
PfCRT^3D7 [9] = target: T1, PfCRT^3D7; assay: cell-based; format: cell-based; conditions: total [3H]CQ transport; for inhibition at 500 µM: [test solute] = 0.5 mM; for inhibition at 1000 µM: [test solute] = 1 mM; for inhibition at 2000 µM: [test solute] = 2 mM
How it was run: as §1

PfCRT [10] = assay: Test of solutes as potential co-substrates for influx of VF-6 via PfCRT into the oocyte; format: cell-based, Plasmodium falciparum; parameters: key: X: Compounds that have been tested as potential co-substrates but are not required for influx of VF-6 via PfCRT into the oocyte; conditions: X = tested
[11] = Oocyte, mean ± SEM, SEM, read-out: Uptake of [3H]CQ (% PfCRTDd2 control), cis-inhibition, non-expressing oocytes
[12] = non-expressing oocytes, normalised to the oocyte type control, read-out: Uptake of [3H]CQ (% non-expressing oocyte control), cis-inhibition
[13] = read-out: PfCRT-mediated [3H]CQ transport, cis-inhibition (% PfCRTEcu1110 control)
[14] = read-out: Uptake of [3H]CQ (% PfCRTDd2 control), cis-inhibition, PfCRTEcu1110, SEM
[15] = read-out: Uptake of [3H]CQ (% PfCRTEcu1110 control), cis-inhibition
[16] = read-out: [3H]CQ transport (% PfCRTEcu1110 control), cis-inhibition, PfCRTEcu1110, SEM
[17] = read-out: PfCRT-mediated [3H]CQ transport, cis-inhibition (% PfCRTDd2 control)
[18] = read-out: Uptake of [3H]CQ (% PfCRTDd2 control), cis-inhibition, PfCRTDd2, SEM
[19] = PfCRT3D7 oocytes, normalised to the oocyte type control, read-out: Uptake of [3H]CQ (% PfCRT3D7 control), cis-inhibition
[20] = mean ± SEM, SEM, read-out: Uptake of [3H]CQ (% PfCRTDd2 control), cis-inhibition, PfCRT3D7

T2 sequence (Q9N623 whole entry A220S/I356L/K76T/N326D): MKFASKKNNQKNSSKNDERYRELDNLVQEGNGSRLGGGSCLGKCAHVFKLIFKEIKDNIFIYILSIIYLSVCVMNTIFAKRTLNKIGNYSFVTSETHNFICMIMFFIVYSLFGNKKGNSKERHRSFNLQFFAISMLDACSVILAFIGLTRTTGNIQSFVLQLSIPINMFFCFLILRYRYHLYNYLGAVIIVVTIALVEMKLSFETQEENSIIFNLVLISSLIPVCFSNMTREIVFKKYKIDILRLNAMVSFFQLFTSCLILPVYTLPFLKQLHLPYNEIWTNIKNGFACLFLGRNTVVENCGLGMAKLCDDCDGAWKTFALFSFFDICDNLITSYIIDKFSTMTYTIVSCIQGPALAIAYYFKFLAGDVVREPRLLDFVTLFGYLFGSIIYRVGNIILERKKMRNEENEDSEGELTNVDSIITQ
T3 sequence (Q8IDM6 whole entry): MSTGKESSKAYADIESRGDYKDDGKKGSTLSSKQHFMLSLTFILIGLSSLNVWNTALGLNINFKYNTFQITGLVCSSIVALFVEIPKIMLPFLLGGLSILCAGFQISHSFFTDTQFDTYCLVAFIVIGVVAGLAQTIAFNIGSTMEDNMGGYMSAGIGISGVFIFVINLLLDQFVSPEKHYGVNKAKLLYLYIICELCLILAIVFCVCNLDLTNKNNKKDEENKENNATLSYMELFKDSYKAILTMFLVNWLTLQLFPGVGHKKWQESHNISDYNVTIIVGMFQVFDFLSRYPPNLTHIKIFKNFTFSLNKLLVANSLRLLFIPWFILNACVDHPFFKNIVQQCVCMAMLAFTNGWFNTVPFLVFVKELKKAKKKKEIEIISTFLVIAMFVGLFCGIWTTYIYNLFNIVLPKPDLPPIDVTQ
T4 sequence (Q9N623 whole entry A220S/I356T/K76T/M74I/N326S/N75E/Q271E/R371I): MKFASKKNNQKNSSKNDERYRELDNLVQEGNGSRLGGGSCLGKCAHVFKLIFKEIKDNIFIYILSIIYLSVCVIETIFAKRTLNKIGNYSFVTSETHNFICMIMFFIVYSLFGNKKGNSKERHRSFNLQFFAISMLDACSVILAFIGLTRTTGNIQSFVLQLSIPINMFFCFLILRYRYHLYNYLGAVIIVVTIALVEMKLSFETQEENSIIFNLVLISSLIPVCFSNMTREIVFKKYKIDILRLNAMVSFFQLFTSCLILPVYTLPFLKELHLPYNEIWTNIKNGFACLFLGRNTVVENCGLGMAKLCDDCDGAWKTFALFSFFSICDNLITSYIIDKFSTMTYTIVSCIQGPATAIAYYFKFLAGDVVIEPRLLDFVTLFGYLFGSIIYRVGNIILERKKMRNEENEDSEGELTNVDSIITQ
T1 sequence (Q8IBZ9 59-398): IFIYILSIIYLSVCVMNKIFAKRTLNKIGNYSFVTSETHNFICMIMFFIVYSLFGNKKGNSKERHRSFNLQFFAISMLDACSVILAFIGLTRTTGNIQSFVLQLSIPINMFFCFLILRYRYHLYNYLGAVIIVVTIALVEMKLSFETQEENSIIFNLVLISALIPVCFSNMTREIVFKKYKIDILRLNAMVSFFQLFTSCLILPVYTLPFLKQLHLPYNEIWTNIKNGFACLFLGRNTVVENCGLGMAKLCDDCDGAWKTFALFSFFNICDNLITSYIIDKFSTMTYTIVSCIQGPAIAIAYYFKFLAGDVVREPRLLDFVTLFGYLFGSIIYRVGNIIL

C[C@H](N)C(=O)O [L-alanine]
inhibition at 500 µM (non-expressing oocytes [1]; [11]): 3.5 ± 0.08% | inhibition at 1000 µM (non-expressing oocytes [1]; [11]): 3.7 ± 0.08% | inhibition at 2000 µM (non-expressing oocytes [1]; [11]): 2.2 ± 0.06% | inhibition at 500 µM (non-expressing oocytes [1]; [12]): 99 ± 5.3% | inhibition at 1000 µM (non-expressing oocytes [1]; [12]): 100 ± 3.5% | inhibition at 2000 µM (non-expressing oocytes [1]; [12]): 99 ± 1.4% | Uptake of [3H]CQ (% non-expressing oocyte control), trans-stimulation (non-expressing oocytes [2]; [test solute]i = 5 mM): 99 ± 3.2 % non-expressing oocyte control | Uptake of [3H]CQ (% non-expressing oocyte control), trans-stimulation (non-expressing oocytes [2]; [test solute]i = 45 mM (30 mM for some solutes due to solubility)): 99 ± 2.2 % non-expressing oocyte control | Uptake of [3H]CQ (% PfCRTDd2 control), trans-stimulation, non-expressing oocytes (non-expressing oocytes [2]; [test solute]i = 5 mM (intracellular)): 3.1 ± 0.03 % PfCRTDd2 control | Uptake of [3H]CQ (% PfCRTDd2 control), trans-stimulation, non-expressing oocytes (non-expressing oocytes [2]; [test solute]i = 45 mM (intracellular; 30 mM for some solutes due to solubility)): 3.3 ± 0.08 % PfCRTDd2 control | activity at 5000 µM (PfCRT^3D7 [3]; PfCRT3D7 oocytes, [test solute]i = 5 mM, total [3H]CQ transport, normalised to the oocyte type control, read-out: Uptake of [3H]CQ (% PfCRT3D7 control), trans-stimulation): 99 ± 3.6% | [3H]CQ transport (% PfCRT3D7 control), trans-stimulation, PfCRT3D7 (PfCRT^3D7 [3]; SEM): 0.3 ± 0.01 % PfCRT3D7 control | activity at 5000 µM (PfCRT^3D7 [3]; [test solute]i = 5 mM (intracellular), PfCRT3D7 oocytes, normalised to oocyte type control, read-out: PfCRT-mediated [3H]CQ transport, trans-stimulation (% PfCRT3D7 control)): 97 ± 2.1% | activity at 45000 µM (PfCRT^3D7 [3]; SEM, read-out: Uptake of [3H]CQ (% PfCRTDd2 control), trans-stimulation, PfCRT3D7): 3.3 ± 0.05% | activity at 45000 µM (PfCRT^3D7 [3]; read-out: PfCRT-mediated [3H]CQ transport, trans-stimulation (% PfCRT3D7 control)): 97 ± 2.3% | activity at 45000 µM (PfCRT^3D7 [3]; read-out: Uptake of [3H]CQ (% PfCRT3D7 control), trans-stimulation): 99 ± 3.2% | activity at 5000 µM (PfCRT^3D7 [3]; total [3H]CQ transport, [test solute]i = 5 mM (intracellular), mean ± SEM, SEM, read-out: Uptake of [3H]CQ (% PfCRTDd2 control), trans-stimulation, PfCRT3D7): 3.3 ± 0.05% | activity at 5000 µM (PfCRT^Ecu1110 [4]; pH 5.5, read-out: PfCRT-mediated [3H]CQ transport, trans-stimulation (% PfCRTEcu1110 control), [test solute]i = 5 mM (intracellular), PfCRTEcu1110 oocytes, normalised to oocyte type control): 97 ± 1.4% | activity at 5000 µM (PfCRT^Ecu1110 [4]; pH 5.5, read-out: Uptake of [3H]CQ (% PfCRTEcu1110 control), trans-stimulation, PfCRTEcu1110 oocytes, [test solute]i = 5 mM, total [3H]CQ transport, normalised to the oocyte type control): 99 ± 3.2% | activity at 45000 µM (PfCRT^Ecu1110 [4]; pH 5.5, read-out: Uptake of [3H]CQ (% PfCRTEcu1110 control), trans-stimulation, PfCRTEcu1110 oocytes, [test solute]i = 45 mM (30 mM for some solutes due to solubility), total [3H]CQ transport, normalised to the oocyte type control): 101 ± 2.1% | activity at 5000 µM (PfCRT^Ecu1110 [4]; read-out: Uptake of [3H]CQ (% PfCRTDd2 control), trans-stimulation, PfCRTEcu1110, total [3H]CQ transport, [test solute]i = 5 mM (intracellular), mean ± SEM, SEM): 35 ± 2.6% | activity at 45000 µM (PfCRT^Ecu1110 [4]; read-out: Uptake of [3H]CQ (% PfCRTDd2 control), trans-stimulation, PfCRTEcu1110, total [3H]CQ transport, [test solute]i = 45 mM (intracellular; 30 mM for some solutes due to solubility), mean ± SEM, SEM): 36 ± 1.5% | activity at 5000 µM (PfNT1; PfNT1 oocytes, [test solute]i = 5 mM, normalised to the oocyte type control, read-out: Uptake of [3H]CQ (% PfNT1 control), trans-stimulation): 99 ± 3.1% | activity at 45000 µM (PfNT1; SEM, read-out: Uptake of [3H]CQ (% PfCRTDd2 control), trans-stimulation, PfNT1): 3.2 ± 0.02% | activity at 45000 µM (PfNT1; read-out: Uptake of [3H]CQ (% PfNT1 control), trans-stimulation): 99 ± 3.6% | activity at 5000 µM (PfNT1; [test solute]i = 5 mM (intracellular), mean ± SEM, SEM, read-out: Uptake of [3H]CQ (% PfCRTDd2 control), trans-stimulation, PfNT1): 2.2 ± 0.03% | activity at 5000 µM (PfCRT^Dd2 [5]; pH 5.5, read-out: PfCRT-mediated [3H]CQ transport, trans-stimulation (% PfCRTDd2 control), [test solute]i = 5 mM (intracellular), PfCRTDd2 oocytes, normalised to oocyte type control): 95 ± 1.9% | activity at 5000 µM (PfCRT^Dd2 [5]; pH 5.5, read-out: Uptake of [3H]CQ (% PfCRTDd2 control), trans-stimulation, PfCRTDd2, total [3H]CQ transport, [test solute]i = 5 mM (intracellular), mean ± SEM, SEM): 97 ± 3.3% | activity at 5000 µM (PfCRT^Dd2 [5]; pH 5.5, read-out: Uptake of [3H]CQ (% PfCRTDd2 control), trans-stimulation, PfCRTDd2 oocytes, [test solute]i = 5 mM, total [3H]CQ transport, normalised to the oocyte type control): 97 ± 3.3% | activity at 45000 µM (PfCRT^Dd2 [5]; pH 5.5, read-out: Uptake of [3H]CQ (% PfCRTDd2 control), trans-stimulation, PfCRTDd2 oocytes, total [3H]CQ transport, normalised to the oocyte type control): 98 ± 1.9% | activity at 5000 µM (PfCRT^Dd2 [5]; pH 5.5, read-out: [3H]CQ transport (% PfCRTDd2 control), trans-stimulation, PfCRTDd2, trans-stimulation, [test solute]i = 5 mM (injected), PfCRT-mediated component (background subtracted), mean ± SEM, SEM): 95 ± 1.9% | activity at 45000 µM (PfCRT^Dd2 [5]; pH 5.5, read-out: [3H]CQ transport (% PfCRTDd2 control), trans-stimulation, PfCRTDd2, trans-stimulation, PfCRT-mediated component (background subtracted), mean ± SEM, SEM): 96 ± 3.2% | inhibition at 500 µM (PfCRT^Ecu1110 [6]; [13]): 93 ± 1.3% | inhibition at 1000 µM (PfCRT^Ecu1110 [6]; [13]): 95 ± 1.7% | inhibition at 500 µM (PfCRT^Ecu1110 [6]; [14]): 31 ± 2.5% | inhibition at 1000 µM (PfCRT^Ecu1110 [6]; [14]): 32 ± 2.1% | inhibition at 2000 µM (PfCRT^Ecu1110 [6]; [14]): 32 ± 0.9% | inhibition at 500 µM (PfCRT^Ecu1110 [6]; [15]): 96 ± 2.5% | inhibition at 1000 µM (PfCRT^Ecu1110 [6]; [15]): 97 ± 2.5% | inhibition at 2000 µM (PfCRT^Ecu1110 [6]; [15]): 98 ± 4.1% | inhibition at 500 µM (PfCRT^Ecu1110 [6]; [16]): 28 ± 0.6% | inhibition at 1000 µM (PfCRT^Ecu1110 [6]; [16]): 29 ± 1.1% | inhibition at 2000 µM (PfCRT^Ecu1110 [6]; [16]): 29 ± 1.5% | inhibition at 500 µM (PfCRT^Dd2 [7]; [17]): 95 ± 2.1% | inhibition at 1000 µM (PfCRT^Dd2 [7]; [17]): 94 ± 3.8% | inhibition at 500 µM (PfCRT^Dd2 [7]; [18]): 97 ± 4.6% | inhibition at 1000 µM (PfCRT^Dd2 [7]; [18]): 96 ± 3.3% | inhibition at 2000 µM (PfCRT^Dd2 [7]; [18]): 98 ± 3.1% | Tested as potential co-substrate but not required for influx of VF-6 via PfCRT into the oocyte (PfCRT [8]): X | inhibition at 500 µM (PfCRT^3D7 [9]; [19]): 99 ± 3.2% | inhibition at 1000 µM (PfCRT^3D7 [9]; [19]): 100 ± 3.6% | inhibition at 2000 µM (PfCRT^3D7 [9]; [19]): 99 ± 4.6% | inhibition at 500 µM (PfCRT^3D7 [9]; [20]): 4.2 ± 0.03% | inhibition at 1000 µM (PfCRT^3D7 [9]; [20]): 3.1 ± 0.07% | inhibition at 2000 µM (PfCRT^3D7 [9]; [20]): 3.2 ± 0.08% | Tested as potential co-substrate but not required for influx of VF-6 via PfCRT into the oocyte (PfCRT [10]): X
